Test results as given in paper PMC7206119, “RIP1 inhibition blocks inflammatory diseases but not tumor growth or metastases” (Cell Death and Differentiation, 2019).

Assays:
Test in all cases: biochemical
Parameters in all cases: Thermo Fisher SelectScreen kinase panel: Z'-LYTE and Adapta activity, LanthaScreen binding
CaMKII_beta = target: T1, CaMKII_beta (Homo sapiens, UniProt Q13554)
T1 construct: gene CAMK2B
How it was run: (§1)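 GNE684 profiled at 10 µM across 221 kinases with Z'-LYTE and Adapta activity and LanthaScreen binding formats. Also screened at 10 µM against 468 kinases in KINOMEscan scanMAX binding assay.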

TIE2 = target: T2, TIE2 (Homo sapiens, UniProt Q02763)
T2 construct: gene TEK
How it was run: as §1

PLK3 = PLK3 (Homo sapiens, UniProt Q9H4B4)
How it was run: as §1

Hyl = target: T3, Hyl (Homo sapiens, UniProt P42679)
T3 construct: gene MATK
How it was run: as §1

RSK2 = target: T4, RSK2 (Homo sapiens, UniProt P51812)
T4 construct: gene RPS6KA3
T4 sequence (P51812 whole entry): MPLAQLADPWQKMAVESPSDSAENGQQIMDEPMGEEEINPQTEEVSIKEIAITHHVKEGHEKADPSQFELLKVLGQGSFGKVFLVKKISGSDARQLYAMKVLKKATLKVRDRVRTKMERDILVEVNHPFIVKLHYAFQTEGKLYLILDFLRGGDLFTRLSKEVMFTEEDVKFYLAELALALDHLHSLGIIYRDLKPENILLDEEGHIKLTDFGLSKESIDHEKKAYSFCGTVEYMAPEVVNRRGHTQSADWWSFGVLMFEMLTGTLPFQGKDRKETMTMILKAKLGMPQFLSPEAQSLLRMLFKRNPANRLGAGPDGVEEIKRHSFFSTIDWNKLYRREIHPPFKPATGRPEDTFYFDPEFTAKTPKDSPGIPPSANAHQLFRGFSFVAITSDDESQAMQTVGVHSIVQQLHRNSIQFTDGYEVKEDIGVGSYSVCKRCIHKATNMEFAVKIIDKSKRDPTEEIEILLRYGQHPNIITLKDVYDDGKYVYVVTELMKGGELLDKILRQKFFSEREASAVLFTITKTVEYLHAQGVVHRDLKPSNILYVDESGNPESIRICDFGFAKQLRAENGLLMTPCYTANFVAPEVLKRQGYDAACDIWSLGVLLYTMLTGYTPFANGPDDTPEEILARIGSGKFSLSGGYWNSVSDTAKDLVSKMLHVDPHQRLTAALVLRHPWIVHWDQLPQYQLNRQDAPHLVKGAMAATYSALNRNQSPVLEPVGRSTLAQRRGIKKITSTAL
How it was run: as §1

GSK3_beta = target: T5, GSK3_beta (Homo sapiens, UniProt P49841)
T5 construct: gene GSK3B
How it was run: as §1

JAK2 = JAK2 (Homo sapiens, UniProt O60674)
How it was run: as §1

GSK3_alpha = target: T6, GSK3_alpha (Homo sapiens, UniProt P49840)
T6 construct: gene GSK3A
How it was run: as §1

CK2_alpha1 = target: T7, CK2_alpha1 (Homo sapiens, UniProt P68400)
T7 construct: gene CSNK2A1
How it was run: as §1

LYN = LYN (Homo sapiens, UniProt P07948)
How it was run: as §1

JNK1_alpha1 = target: T8, JNK1_alpha1 (Homo sapiens, UniProt P45983)
T8 construct: gene MAPK8; isoform alpha1
How it was run: as §1

BMPR1A = BMPR1A (Homo sapiens, UniProt P36894)
Sequence of BMPR1A (P36894 whole entry): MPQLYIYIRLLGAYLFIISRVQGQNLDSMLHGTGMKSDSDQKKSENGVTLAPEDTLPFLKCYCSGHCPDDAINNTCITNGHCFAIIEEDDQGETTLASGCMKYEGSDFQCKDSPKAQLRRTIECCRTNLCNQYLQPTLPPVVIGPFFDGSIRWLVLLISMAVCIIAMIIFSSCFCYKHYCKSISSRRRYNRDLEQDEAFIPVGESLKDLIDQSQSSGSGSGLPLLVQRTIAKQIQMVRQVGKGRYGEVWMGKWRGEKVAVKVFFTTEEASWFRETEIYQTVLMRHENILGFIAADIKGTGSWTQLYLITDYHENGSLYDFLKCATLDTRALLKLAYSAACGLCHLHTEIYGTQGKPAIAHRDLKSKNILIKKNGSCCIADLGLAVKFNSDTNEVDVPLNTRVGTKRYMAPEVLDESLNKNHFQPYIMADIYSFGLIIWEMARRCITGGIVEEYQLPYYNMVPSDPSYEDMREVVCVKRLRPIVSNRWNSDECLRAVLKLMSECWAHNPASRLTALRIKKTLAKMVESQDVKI
How it was run: as §1

CSF1R = CSF1R (Homo sapiens, UniProt P07333)
Sequence of CSF1R (P07333 whole entry): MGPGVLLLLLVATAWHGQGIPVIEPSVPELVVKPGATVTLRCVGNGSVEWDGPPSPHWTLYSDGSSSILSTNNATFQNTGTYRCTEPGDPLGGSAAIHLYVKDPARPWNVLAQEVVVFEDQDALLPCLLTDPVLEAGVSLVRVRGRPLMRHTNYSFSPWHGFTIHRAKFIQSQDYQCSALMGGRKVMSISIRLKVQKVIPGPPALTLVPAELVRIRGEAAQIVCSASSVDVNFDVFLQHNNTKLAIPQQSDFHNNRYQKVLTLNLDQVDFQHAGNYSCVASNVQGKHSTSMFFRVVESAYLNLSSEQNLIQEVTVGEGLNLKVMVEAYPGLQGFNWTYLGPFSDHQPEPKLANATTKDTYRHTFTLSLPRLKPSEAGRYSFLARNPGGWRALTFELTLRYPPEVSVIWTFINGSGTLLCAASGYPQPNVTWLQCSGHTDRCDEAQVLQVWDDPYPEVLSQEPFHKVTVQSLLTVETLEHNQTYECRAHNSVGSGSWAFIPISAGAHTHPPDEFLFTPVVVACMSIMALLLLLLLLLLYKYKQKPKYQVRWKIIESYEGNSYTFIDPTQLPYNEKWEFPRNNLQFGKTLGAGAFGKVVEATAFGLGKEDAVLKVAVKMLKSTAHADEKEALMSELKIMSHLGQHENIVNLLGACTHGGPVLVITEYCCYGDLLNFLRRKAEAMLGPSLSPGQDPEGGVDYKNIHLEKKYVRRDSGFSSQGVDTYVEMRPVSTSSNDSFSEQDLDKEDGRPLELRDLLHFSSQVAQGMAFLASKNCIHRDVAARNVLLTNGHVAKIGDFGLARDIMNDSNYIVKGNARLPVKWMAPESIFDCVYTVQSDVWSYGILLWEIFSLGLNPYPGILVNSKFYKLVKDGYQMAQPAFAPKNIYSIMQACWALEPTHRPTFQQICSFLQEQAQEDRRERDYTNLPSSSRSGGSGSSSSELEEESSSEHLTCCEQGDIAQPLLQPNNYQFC
How it was run: as §1

RIPK3 = RIPK3 (Homo sapiens, UniProt Q9Y572)
How it was run: as §1

MST3 = target: T9, MST3 (Homo sapiens, UniProt Q9Y6E0)
T9 construct: gene STK24
How it was run: as §1

EPHA1 = EPHA1 (Homo sapiens, UniProt P21709)
Sequence of EPHA1 (P21709 whole entry): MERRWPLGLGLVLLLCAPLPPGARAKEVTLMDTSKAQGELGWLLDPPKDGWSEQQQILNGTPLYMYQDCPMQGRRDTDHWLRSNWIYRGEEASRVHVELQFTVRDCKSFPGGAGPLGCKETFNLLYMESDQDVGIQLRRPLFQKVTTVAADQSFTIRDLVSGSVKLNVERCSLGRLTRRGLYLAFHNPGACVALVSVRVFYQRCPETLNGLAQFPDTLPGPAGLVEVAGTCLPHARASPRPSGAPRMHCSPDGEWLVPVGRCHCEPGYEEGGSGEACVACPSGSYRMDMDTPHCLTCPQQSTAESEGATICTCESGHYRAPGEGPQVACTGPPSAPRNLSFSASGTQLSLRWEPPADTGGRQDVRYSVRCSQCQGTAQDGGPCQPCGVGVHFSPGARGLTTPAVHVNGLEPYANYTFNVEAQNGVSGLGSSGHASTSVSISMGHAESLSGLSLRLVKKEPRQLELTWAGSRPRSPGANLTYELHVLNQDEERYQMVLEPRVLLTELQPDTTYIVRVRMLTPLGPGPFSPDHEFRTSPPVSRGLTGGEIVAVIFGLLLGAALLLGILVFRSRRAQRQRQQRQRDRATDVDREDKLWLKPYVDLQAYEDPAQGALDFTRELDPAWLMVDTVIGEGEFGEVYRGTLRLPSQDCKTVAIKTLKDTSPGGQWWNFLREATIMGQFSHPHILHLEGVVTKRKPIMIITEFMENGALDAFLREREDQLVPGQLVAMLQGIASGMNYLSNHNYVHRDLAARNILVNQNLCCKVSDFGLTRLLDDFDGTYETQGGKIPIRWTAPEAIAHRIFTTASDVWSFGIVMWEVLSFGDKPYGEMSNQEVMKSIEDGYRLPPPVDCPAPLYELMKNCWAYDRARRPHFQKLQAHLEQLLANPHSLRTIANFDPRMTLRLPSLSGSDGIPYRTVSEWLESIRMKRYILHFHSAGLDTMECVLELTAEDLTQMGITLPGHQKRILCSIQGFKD
How it was run: as §1

PKA = target: T10, PKA (Homo sapiens, UniProt P17612)
T10 construct: gene PRKACA
How it was run: as §1

p38-gamma = target: T11, p38-gamma (Homo sapiens, UniProt P53778)
T11 construct: gene MAPK12
T11 sequence (P53778 whole entry): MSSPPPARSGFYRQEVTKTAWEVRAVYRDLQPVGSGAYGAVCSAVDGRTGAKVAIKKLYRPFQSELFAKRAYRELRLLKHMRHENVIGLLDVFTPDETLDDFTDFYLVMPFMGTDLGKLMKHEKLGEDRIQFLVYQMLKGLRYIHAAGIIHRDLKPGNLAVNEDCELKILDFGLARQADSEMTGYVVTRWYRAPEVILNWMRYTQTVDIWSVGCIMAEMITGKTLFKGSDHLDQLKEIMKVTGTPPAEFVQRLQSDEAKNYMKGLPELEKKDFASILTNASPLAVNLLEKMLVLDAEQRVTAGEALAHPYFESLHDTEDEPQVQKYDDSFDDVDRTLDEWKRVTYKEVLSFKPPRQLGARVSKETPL
How it was run: as §1

Srm = target: T12, Srm (Homo sapiens, UniProt Q9H3Y6)
T12 construct: gene SRMS
How it was run: as §1

CDK7/cyclinH = CDK7/cyclinH (Homo sapiens, UniProt P50613)
How it was run: as §1

DYRK3 = DYRK3 (Homo sapiens, UniProt O43781)
Sequence of DYRK3 (O43781 whole entry): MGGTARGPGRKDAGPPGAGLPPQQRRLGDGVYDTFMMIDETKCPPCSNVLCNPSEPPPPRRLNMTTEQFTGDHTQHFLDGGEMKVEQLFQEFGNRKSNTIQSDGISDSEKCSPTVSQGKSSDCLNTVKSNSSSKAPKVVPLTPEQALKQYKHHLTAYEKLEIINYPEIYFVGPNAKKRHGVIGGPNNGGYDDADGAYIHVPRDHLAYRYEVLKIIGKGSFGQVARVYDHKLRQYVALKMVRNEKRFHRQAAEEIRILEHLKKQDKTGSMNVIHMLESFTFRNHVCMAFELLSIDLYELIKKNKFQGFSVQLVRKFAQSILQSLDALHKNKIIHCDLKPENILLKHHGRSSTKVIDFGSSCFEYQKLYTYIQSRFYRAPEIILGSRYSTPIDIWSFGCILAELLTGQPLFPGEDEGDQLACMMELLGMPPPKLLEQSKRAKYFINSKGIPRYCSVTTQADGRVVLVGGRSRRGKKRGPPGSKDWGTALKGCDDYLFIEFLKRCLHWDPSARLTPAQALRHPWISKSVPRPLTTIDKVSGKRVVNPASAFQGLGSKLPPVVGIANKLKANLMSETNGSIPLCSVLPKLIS
How it was run: as §1

PKC_beta1 = target: T13, PKC_beta1 (Homo sapiens, UniProt P05771)
T13 construct: gene PRKCB; isoform beta I
How it was run: as §1

STK33 = STK33 (Homo sapiens, UniProt Q9BYT3)
How it was run: as §1

T1 sequence (Q13554 whole entry): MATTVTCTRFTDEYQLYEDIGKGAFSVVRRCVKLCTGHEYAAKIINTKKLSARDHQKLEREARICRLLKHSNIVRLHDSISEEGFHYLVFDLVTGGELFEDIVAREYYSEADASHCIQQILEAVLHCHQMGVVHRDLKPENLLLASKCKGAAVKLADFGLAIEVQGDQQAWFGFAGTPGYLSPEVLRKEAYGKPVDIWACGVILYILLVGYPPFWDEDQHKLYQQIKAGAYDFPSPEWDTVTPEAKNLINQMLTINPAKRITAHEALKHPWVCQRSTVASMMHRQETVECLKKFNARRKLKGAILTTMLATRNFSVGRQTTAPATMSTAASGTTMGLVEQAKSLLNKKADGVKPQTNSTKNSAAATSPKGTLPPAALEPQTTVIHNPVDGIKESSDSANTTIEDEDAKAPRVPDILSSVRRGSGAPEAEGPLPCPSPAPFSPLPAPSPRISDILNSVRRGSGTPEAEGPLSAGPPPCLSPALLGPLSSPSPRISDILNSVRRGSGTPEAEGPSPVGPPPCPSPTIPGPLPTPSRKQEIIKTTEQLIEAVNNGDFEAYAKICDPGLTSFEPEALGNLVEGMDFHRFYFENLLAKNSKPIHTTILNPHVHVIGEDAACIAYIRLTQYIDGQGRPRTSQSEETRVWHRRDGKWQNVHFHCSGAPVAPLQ

Compound: COc1cc2c(cn1)N(C)C(=O)[C@@H](NC(=O)c1nc3n(n1)[C@H](c1ccccc1)CC3)CC2 [GNE684, (S)-N-((S)-7-methoxy-1-methyl-2-oxo-2,3,4,5-tetrahydro-1H-pyrido[3,4-b]azepin-3-yl)-5-phenyl-6,7-dihydro-5H-pyrrolo[1,2-b][1,2,4]triazole-2-carboxamide]
- inhibition at 10 µM (CaMKII_beta): 2.5%
- inhibition at 10 µM (TIE2): -4.5%
- inhibition at 10 µM (PLK3): 5%
- inhibition at 10 µM (Hyl): 1%
- inhibition at 10 µM (RSK2): 4%
- inhibition at 10 µM (GSK3_beta): 5%
- inhibition at 10 µM (JAK2): 2.5%
- inhibition at 10 µM (GSK3_alpha): 5%
- inhibition at 10 µM (CK2_alpha1): 3.5%
- inhibition at 10 µM (LYN): 7%
- inhibition at 10 µM (JNK1_alpha1): -5.5%
- inhibition at 10 µM (BMPR1A): -4.5%
- inhibition at 10 µM (CSF1R): 2%
- inhibition at 10 µM (RIPK3): -3%
- inhibition at 10 µM (MST3): 4%
- inhibition at 10 µM (EPHA1): 9.5%
- inhibition at 10 µM (PKA): 1%
- inhibition at 10 µM (p38-gamma): 7%
- inhibition at 10 µM (Srm): 9%
- inhibition at 10 µM (CDK7/cyclinH): 5%
- inhibition at 10 µM (DYRK3): 2%
- inhibition at 10 µM (PKC_beta1): 3.5%
- inhibition at 10 µM (STK33): 0%
